Patent publication US7745619B2, “Vinca derivatives” (priority 2003, dated 2010)

What was measured:
OVCAR-8 = test: NCI 60-cell line growth inhibition assay: OVCAR-8; format: cell-based; conditions: Homo sapiens
A549/ATCC = test: NCI 60-cell line growth inhibition assay: A549/ATCC; format: cell-based; conditions: Homo sapiens, A549
HeLa S-3 cells = test: HeLa GI50 determination (SRB growth inhibition); format: cell-based, human; conditions: Homo sapiens, HeLa S3, 48 h, read-out: HeLa Cells GI50 (nM)
Method in brief: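 Cells plated at 2×10^4/well; day-0 plate TCA-fixed, test compounds added at 10-fold dilutions for 2 days. SRB staining, absorbance at 490 nm; GI = 100×(T−T0)/(C−T0), GI50 from growth inhibition vs. concentration plots.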

MCF-7 cells = test: MCF-7 GI50 determination (crystal violet growth inhibition); format: cell-based, human; conditions: Homo sapiens, MCF7, 96 h, read-out: MCF-7 Cells GI50 (nM)
Method in brief: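 MCF-7 cells seeded at 2×10^4 cells/well, grown 24 h drug-free, then exposed to 10-fold compound dilutions for 4 days. Glutaraldehyde-fixed cells stained with crystal violet, absorbance read at 570 nm; GI=100×(T/T0) against day-0 control OD, GI50 from growth inhibition versus concentration plots.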

M14 = test: NCI 60-cell line growth inhibition assay: M14; format: cell-based; conditions: Homo sapiens
SK-MEL-5 = test: NCI 60-cell line growth inhibition assay: SK-MEL-5; format: cell-based; conditions: Homo sapiens
IGROV1 = test: NCI 60-cell line growth inhibition assay: IGROV1; format: cell-based; conditions: Homo sapiens, IGROV-1, Ovarian
Excerpt: (§1) The following data in Table 4 summarize the growth inhibition properties of several compounds of the present invention against 60-human transformed cell lines.

MDA-MB-435 = test: NCI 60-cell line growth inhibition assay: MDA-MB-435; format: cell-based; conditions: Homo sapiens
HT29 = test: NCI 60-cell line growth inhibition assay: HT29; format: cell-based; conditions: Homo sapiens, HT-29
LOX IMVI = test: NCI 60-cell line growth inhibition assay: LOX IMVI; format: cell-based; conditions: Homo sapiens
ACHN = test: NCI 60-cell line growth inhibition assay: ACHN; format: cell-based; conditions: Homo sapiens
HS 578T = test: NCI 60-cell line growth inhibition assay: HS 578T; format: cell-based; conditions: Homo sapiens, Hs-578T
MCF7 = test: NCI 60-cell line growth inhibition assay: MCF7; format: cell-based; conditions: Homo sapiens
MDA-MB-231/ATCC = test: NCI 60-cell line growth inhibition assay: MDA-MB-231/ATCC; format: cell-based; conditions: Homo sapiens, MDA-MB-231
SNB-19 = test: NCI 60-cell line growth inhibition assay: SNB-19; format: cell-based; conditions: Homo sapiens
CCRF-CEM = test: NCI 60-cell line growth inhibition assay: CCRF-CEM; format: cell-based; conditions: Homo sapiens, Leukemia
Excerpt: as §1

SF-539 = test: NCI 60-cell line growth inhibition assay: SF-539; format: cell-based; conditions: Homo sapiens
MOLT-4 = test: NCI 60-cell line growth inhibition assay: MOLT-4; format: cell-based; conditions: Homo sapiens
DU-145 = test: NCI 60-cell line growth inhibition assay: DU-145; format: cell-based; conditions: Homo sapiens
KM12 = test: NCI 60-cell line growth inhibition assay: KM12; format: cell-based; conditions: Homo sapiens
SK-OV-3 = test: NCI 60-cell line growth inhibition assay: SK-OV-3; format: cell-based; conditions: Homo sapiens
HOP-92 = test: NCI 60-cell line growth inhibition assay: HOP-92; format: cell-based; conditions: Homo sapiens
TK-10 = test: NCI 60-cell line growth inhibition assay: TK-10; format: cell-based; conditions: Homo sapiens
HOP-62 = test: NCI 60-cell line growth inhibition assay: HOP-62; format: cell-based; conditions: Homo sapiens
NCI-H522 = format: cell-based; conditions: Homo sapiens
UACC-257 = test: NCI 60-cell line growth inhibition assay: UACC-257; format: cell-based; conditions: Homo sapiens
CAKI-1 = test: NCI 60-cell line growth inhibition assay: CAKI-1; format: cell-based; conditions: Homo sapiens
COLO 205 = test: NCI 60-cell line growth inhibition assay: COLO 205; format: cell-based; conditions: Homo sapiens
786-0 = test: NCI 60-cell line growth inhibition assay: 786-0; format: cell-based; conditions: Homo sapiens
NCI/ADR-RES = format: cell-based; conditions: Homo sapiens
EKVX = test: NCI 60-cell line growth inhibition assay: EKVX; format: cell-based; conditions: Homo sapiens
SN12C = test: NCI 60-cell line growth inhibition assay: SN12C; format: cell-based; conditions: Homo sapiens
HCT-15 = test: NCI 60-cell line growth inhibition assay: HCT-15; format: cell-based; conditions: Homo sapiens
UACC-62 = test: NCI 60-cell line growth inhibition assay: UACC-62; format: cell-based; conditions: Homo sapiens
NCI-H460 = format: cell-based; conditions: Homo sapiens

Compound	GI50 (OVCAR-8) [nM]	GI50 (A549/ATCC) [nM]	GI50 (HeLa S-3 cells) [nM]	GI50 (MCF-7 cells) [nM]	GI50 (M14) [nM]	GI50 (SK-MEL-5) [nM]	GI50 (IGROV1) [nM]	GI50 (MDA-MB-435) [nM]	GI50 (HT29) [nM]	GI50 (LOX IMVI) [nM]	GI50 (ACHN) [nM]	GI50 (HS 578T) [nM]	GI50 (MCF7) [nM]	GI50 (MDA-MB-231/ATCC) [nM]	GI50 (SNB-19) [nM]	GI50 (CCRF-CEM) [nM]	GI50 (SF-539) [nM]	GI50 (MOLT-4) [nM]	GI50 (DU-145) [nM]	GI50 (KM12) [nM]	other results
CCCC(=O)/C=C/c1ccc2[nH]c3c(c2c1)CCN1C[C@H](C[C@@](O)(CC)C1)C[C@]3(C(=O)OC)c1cc2c(cc1OC)N(C)[C@H]1[C@@](O)(C(=O)OC)[C@H](OC(C)=O)[C@]3(CC)C=CCN4CC[C@]21[C@@H]43 [Example 29, 12′-(3-oxohex-1-enyl)vinblastine]	22.6	28.7	515	515	< 10	420	1710	34.3	< 10	< 10	93.7	628	10.5	< 10	< 10	28.8	21	11	15.2	212	GI50 (SK-OV-3): 16.9 nM; GI50 (HOP-92): 9930 nM; GI50 (TK-10): 3240 nM; GI50 (HOP-62): < 10 nM; GI50 (NCI-H522): 31.4 nM; GI50 (UACC-257): 19300 nM; GI50 (CAKI-1): 1200 nM; GI50 (COLO 205): < 10 nM; GI50 (786-0): < 10 nM; GI50 (NCI/ADR-RES): 18100 nM; GI50 (EKVX): 10800 nM; GI50 (SN12C): < 10 nM; GI50 (HCT-15): 274 nM; GI50 (UACC-62): < 10 nM; GI50 (NCI-H460): 176 nM
CC[C@]1(O)C[C@H]2CN(CCc3c([nH]c4ccc(C#Cc5ccccc5)cc34)[C@@](C(=O)OC)(c3cc4c(cc3OC)N(C)[C@H]3[C@@](O)(C(=O)OC)[C@H](OC(C)=O)[C@]5(CC)C=CCN6CC[C@]43[C@@H]65)C2)C1 [Example 19, 12′-(2-phenylethynyl) vinblastine]	32200	37300	> 1000	800	260	757	2210	60.5	423	> 100000	22000	1850	396	2020	1790	263	1790	196	2460	206	GI50 (SK-OV-3): 1880 nM; GI50 (HOP-92): 335 nM; GI50 (TK-10): 313 nM; GI50 (HOP-62): 571 nM; GI50 (NCI-H522): 1810 nM; GI50 (UACC-257): 46000 nM; GI50 (CAKI-1): 557 nM; GI50 (COLO 205): 1190 nM; GI50 (786-0): 889 nM; GI50 (NCI/ADR-RES): 1440 nM; GI50 (EKVX): 2790 nM; GI50 (SN12C): 2470 nM; GI50 (HCT-15): 8350 nM; GI50 (UACC-62): 2040 nM; GI50 (NCI-H460): 353 nM
CCC1=C[C@H]2CN(CCc3c([nH]c4ccc(Br)cc34)[C@@](C(=O)OC)(c3cc4c(cc3OC)N(C)[C@H]3[C@@](O)(C(=O)OC)[C@H](OC(C)=O)[C@]5(CC)C=CCN6CC[C@]43[C@@H]65)C2)C1 [Example 97, 12′-bromoanhydro vinblastine]	< 10	< 10	30	50	< 10	< 10	< 10	< 10	< 10	< 10	64.1	< 10	< 10	< 10	< 10	< 10	< 10	< 10	< 10	< 10	GI50 (SK-OV-3): < 10 nM; GI50 (HOP-92): 12200 nM; GI50 (TK-10): < 10 nM; GI50 (HOP-62): < 10 nM; GI50 (NCI-H522): < 10 nM; GI50 (UACC-257): 3950 nM; GI50 (CAKI-1): 589 nM; GI50 (COLO 205): < 10 nM; GI50 (786-0): < 10 nM; GI50 (NCI/ADR-RES): 77.9 nM; GI50 (EKVX): 10200 nM; GI50 (SN12C): < 10 nM; GI50 (HCT-15): < 10 nM; GI50 (UACC-62): < 10 nM; GI50 (NCI-H460): < 10 nM
